Measured values: paper PMC4707489, “A novel cell-penetrating peptide suppresses breast tumorigenesis by inhibiting β-catenin/LEF-1 signaling” (Scientific Reports, 2016)

Experiments:
[1] = test system: MCF-7 cells; assay: Cell growth (CCK-8); assay type: cell-based, human
Description: Cell growth was analyzed using 2-(2-methoxy-4-nitrophenyl)-3-(4-nitroph enyl)-5-(2,4-disulfophenyl)-2H-tetrazolium, monosodium salt, and the Cell Counting Kit-8 (CCK-8, Sigma). […] After culturing for another 48 hr, cell growth was analyzed by CCK-8 and the optical density was detected at 450 nm. The growth ratio was normalized to the cells without treatment.

[2] = test system: MDA-MB-231 cells; assay: Cell cycle analysis, sub-G1 (propidium iodide, flow cytometry); assay type: cell-based, human; settings: MDA-MB-231, 100 μmol/l peptide, flow cytometry (Fig. 3a)
Description: MCF-7 and MDA-MB-231 cells were plated in 6-well plates for 24 hr, and the medium was replaced with fresh culture medium containing 100 μmol/l peptide. After incubation for 24 hr, the cells were harvested by trypsinization and then fixed with 70% 4 °C ethanol. Intracellular DNA was stained with […] propidium iodide in the dark for 30 min at room temperature, and the percentages of sub-G1 cells were determined by flow cytometry (BD LSRII analyzer; BD Biosciences).

[3] = test system: MCF-7 cells; assay: TUNEL apoptosis assay; assay type: cell-based, human; settings: MCF-7, 100 μmol/l, vs control or TAT-NLS-BLBD-6m (Fig. 3b)
Description: (§1) MCF-7 and MDA-MB-231 cells were cultured in 35-mm plates with cover slides on the plate bottom and treated with NLS-BLBD-6, TAT-BLBD-6 and TAT-NLS-BLBD-6 peptide for 24 hr. Subsequently, cells were fixed with 4% paraformaldehyde and permeabilized with 0.2% Triton X-100 for 20 min at room temperature. For the immunofluorescence assay, the slides were incubated with primary antibodies, anti-β-catenin (Epitomics) and anti-TAT (Santa Cruz), for 6 hr, and Alexa-488 fluorescence secondary antibodies for 1 hr. DAPI (Sigma, St Louis, MO) was used to stain the nucleus for 1 min at room temperature. For the TUNEL assay, apoptosis was analyzed by the Apo-BrdU-red DNA Fragmentation Assay kit, according to the manufacturer’s protocol (BioVision, Mountain View, CA, USA). For the PLA, the protein–protein interaction assay was analyzed by Duolink® using PLA® Technology, according to the manufacturer’s protocol (Olink Bioscience, Uppsala, Sweden). Briefly, the slides were incubated with primary antibodies, anti-β-catenin (Epitomics) and anti-TAT (Santa Cruz), and secondary antibodies, Duolink PLA Rabbit MINUS and PLA Mouse PLUS proximity probes. Finally, the proximity ligation was performed by the Duolink detection reagent kit (Olink Bioscience). The immunofluorescence image and TUNEL staining was photographed by a microscope (IX-71, Olympus, Tokyo, Japan).

[4] = test system: MDA-MB-231 cells; assay: TUNEL apoptosis assay; assay type: cell-based, human; settings: MDA-MB-231, 100 μmol/l, vs control or TAT-NLS-BLBD-6m (Fig. 3b)
Description: as §1

[5] = test system: MCF-7-YFP cells xenograft; assay: Xenograft tumor growth in nude mice; assay type: in vivo, mouse; settings: MCF-7 xenograft, 1 and 10 mg/kg intratumoral once every 2 days for 35 days, n = 5 per group, vs control peptide
Text: (§2) All animal experiments were approved by the Kaohsiung Medical University Institutional Animal Care and Use Committee (IACUC Approval No: 101156) and we accordance with the approved guidelines. Female nude mice (4–5 weeks old) were obtained from the National Laboratory Animal Center (Taipei, Taiwan). Xenograft tumor models were established by subcutaneous injection of 1 × 10^7 MCF-7-YFP or MDA-MB-231-GFP cells into the right flanks of mice. Mice with palpable tumors were randomly divided into three groups with five animals in each group. The mice were treated with control peptide, […], 1 and 10 mg/kg TAT-NLS-BLBD-6 by intratumoral injection once every 2 days for 35 days. The fluorescence density was analyzed by an In Vivo Imaging System (IVIS) (Berthold Technologies, Bad Wildbad, Germany), and the tumor volumes (V) of nude mice were calculated by: V = length × diameter^2 × 0.5. For zebrafish xenotransplantation, zebrafishes (Danio rerio) were maintained at 28 °C in an air incubator, and 1 × 10^4 MCF-7-GFP or MDA-MB-231-GFP cells combined with TAT-NLS-BLBD-6 or control peptide were injected into the zebrafish embryos according to the previously described protocol. The fluorescence density was measured 24 and 28 hr after injection using an epifluorescence microscope.

[6] = test system: MCF-7-GFP cells in zebrafish embryos; assay: Zebrafish xenotransplantation, fluorescence density; assay type: in vivo, Danio rerio; settings: MCF-7-GFP co-injected with 100 μmol/l peptide into yolk sacs, between 24 hr and 48 hr, n = 20 per group, vs TAT-NLS-BLBD-6m
Text: as §2, with “The fluorescence density was measured 24 and 28 hr after injection using an epifluorescence microscope.” left out

[7] = test system: MDA-MB-231-GFP cells in zebrafish embryos; assay: as above; assay type: in vivo, Danio rerio; settings: MDA-MB-231-GFP co-injected with 100 μmol/l peptide into yolk sacs, between 24 hr and 48 hr, n = 20 per group, vs TAT-NLS-BLBD-6m
Text: as §2, with “The fluorescence density was measured 24 and 28 hr after injection using an epifluorescence microscope.” left out

[8] = test system: β-catenin/TCF4/LEF-1 downstream genes; assay: Q-PCR of 27 candidate genes in MCF-7; assay type: cell-based, human; settings: MCF-7, 100 μmol/l, 48 hr post-transfection, relative to TAT-NLS-BLBD-6m (Fig. 6d)
Description: (§3) Total RNA was isolated by Trizol reagent (Invitrogen, Carlsbad, CA, USA) and reverse transcribed to produce cDNA using the Deoxy + HiSpec reverse transcriptase kit (Yeastern, Taipei, Taiwan) according to the manufacturer instructions. Q-PCR was analyzed with SYBR Green Master Mix (Applied Biosystems, Stockholm, Sweden) and subjected to quantitation in an […]. The primers used for PCR are given in Supplementary Table S5 online. The Q-PCR data were normalized to 18S cDNA levels.

[9] = test system: β-catenin/TCF4/LEF downstream genes; assay: Q-PCR of downstream genes in ZR-75-30; assay type: cell-based, human; settings: ZR-75-30, 100 μmol/l, 48 hr post-transfection, relative to TAT-NLS-BLBD-6m (Fig. 6g)
Description: as §3

## H-TAT-NLS-ATDEMIPF-NH2 [TAT-NLS-BLBD-6]
[1]; 75 μmol/l peptide, MCF-7, CCK-8, means of three experiments (Fig. 1b)
  cell growth: inhibited the growth
[1]; MCF-7, indicated concentrations, 24, 48 and 72 hr (Fig. 1c,d)
  time and dose dependence of cell growth: inhibited breast cancer cell growth in a time- and dose-dependent manner
[2]
  sub-G1 phase region (pro-apoptotic effect): 43.10%
[3]
  apoptosis (TUNEL, BrdU binding and DNA fragmentation): increased the effect of binding with BrdU and DNA fragmentation
[4]
  apoptosis (TUNEL, BrdU binding and DNA fragmentation): increased the effect of binding with BrdU and DNA fragmentation
[5]
  tumor growth: inhibited tumor growth
[6]
  fluorescence density of transplanted tumor cells: gradually reduced
[7]
  fluorescence density of transplanted tumor cells: gradually reduced
[8]
  gene expression of the 27 candidate genes: decreased
[9]
  expression of β-catenin/TCF4/LEF downstream genes: inhibits
